This is an account of results in ChEMBL document CHEMBL3784939, “Study on the synthesis and biological activities of α-substituted arylacetates derivatives” (Bioorg Med Chem Lett, 2016).

In one assay the test system is NCI-H1650. The assay can be described thus: Cytotoxicity against human NCI-H1650 cells after 72 hrs by MTT assay. It is filed as functional, cell-based. The settings on record: NCI-H1650, 72 h. For orientation: Tetrazolium assays rely on reduction of a dye to a coloured formazan, in cell work by metabolically active cells.
Assay [1] is described as follows: Inhibition of alpha glucosidase (unknown origin) at 100 uM preincubated for 15 mins followed by p-nitrophenyl-alpha-D-glucopyranoside addition measured after 30 mins by spectrophotometric analysis. The settings on record: Homo sapiens.
Assay [2] can be described thus: Cytotoxicity against human BCG823 cells after 72 hrs by MTT assay. It is filed as functional, cell-based. The settings on record: BCG823, 72 h.
Assay [3] in a line: Inhibition of alpha glucosidase (unknown origin) preincubated for 15 mins followed by p-nitrophenyl-alpha-D-glucopyranoside addition measured after 30 mins by spectrophotometric analysis. Also noted: species or system Homo sapiens.
The nature of assay [4]: Cytotoxicity against human HCT116 cells after 72 hrs by MTT assay. To be noted: HCT-116, 72 h. The assay is classed as functional, cell-based.
The test system of assay [5] is Rattus norvegicus. The assay can be described thus: Hypoglycemic activity in diabetic rat model assessed as blood glucose level at 360 mg/kg, ig administered for 12 days measured on day 9 of compound dosing by glucometer (reference value: 21.95 +/- 2.83 mmol/l). The assay is classed as functional.
In assay [6] the test system is Rattus norvegicus. The assay can be described thus: Hypoglycemic activity in diabetic rat model assessed as decrease in blood glucose level at 360 mg/kg, ig administered for 12 days measured on third day of compound dosing by glucometer relative to control. The assay is classed as functional. To be noted: po, 288 h.
For assay [7], the system named is Rattus norvegicus. The assay can be described thus: Hypoglycemic activity in diabetic rat model assessed as blood glucose level at 360 mg/kg, ig administered for 12 days measured on day 12 by glucometer (reference value: 21.95 +/- 2.83 mmol/l). It is filed as functional.
Assay [8] deals with Rattus norvegicus. The assay can be described thus: Hypoglycemic activity in diabetic rat model assessed as blood glucose level at 360 mg/kg, ig administered for 12 days measured on day 6 of compound dosing by glucometer (reference value: 21.95 +/- 2.83 mmol/l). It is filed as functional.
The subject of assay [9] is Rattus norvegicus. The assay can be described thus: Hypoglycemic activity in diabetic rat model assessed as decrease in blood glucose level at 100 mg/kg, ig administered for 12 days measured on twelfth day by glucometer relative to control. The assay is classed as functional. The settings on record: po, 288 h.
Assay [10] concerns Rattus norvegicus. The assay can be described thus: Hypoglycemic activity in diabetic rat model assessed as decrease in blood glucose level at 100 mg/kg, ig administered for 12 days measured on ninth day of compound dosing by glucometer relative to control. The assay is classed as functional. The settings on record: po, 288 h.
Assay [11] concerns Rattus norvegicus. The assay can be described thus: Hypoglycemic activity in diabetic rat model assessed as decrease in blood glucose level at 100 mg/kg, ig administered for 12 days measured on sixth day of compound dosing by glucometer relative to control. The assay is classed as functional. To be noted: po, 288 h.
Assay [12] concerns Rattus norvegicus. Kind of assay: Hypoglycemic activity in diabetic rat model assessed as decrease in blood glucose level at 100 mg/kg, ig administered for 12 days measured on third day of compound dosing by glucometer relative to control. The settings on record: po, 288 h. The assay is classed as functional.
Assay [13] has as its system Rattus norvegicus. The assay can be described thus: Hypoglycemic activity in diabetic rat model assessed as decrease in blood glucose level at 20 mg/kg, ig administered for 12 days measured on third day of compound dosing by glucometer relative to control. The assay is classed as functional. To be noted: po, 288 h.
Assay [14] concerns Rattus norvegicus. The assay can be described thus: Hypoglycemic activity in diabetic rat model assessed as decrease in blood glucose level at 20 mg/kg, ig administered for 12 days measured on sixth day of compound dosing by glucometer relative to control. To be noted: po, 288 h. The assay is classed as functional.
Assay [15] concerns Rattus norvegicus. The assay can be described thus: Hypoglycemic activity in diabetic rat model assessed as decrease in blood glucose level at 20 mg/kg, ig administered for 12 days measured on ninth day of compound dosing by glucometer relative to control. The assay is classed as functional. To be noted: po, 288 h.
In assay [16] the test system is Rattus norvegicus. Kind of assay: Hypoglycemic activity in diabetic rat model assessed as decrease in blood glucose level at 20 mg/kg, ig administered for 12 days measured on twelfth day by glucometer relative to control. The settings on record: po, 288 h. The assay is classed as functional.

In brackets after ≈: the same amount, converted by molar mass. Activity calls are given as the source filed them. The rule behind the calls is not given here. A value given as a limit tells only on which side of the number the result lay.

For `CCOC(=O)C(CO)c1ccc(F)cc1` (stereo unspecified), the IC50 is above 0.01 µg/mL in the assay with NCI-H1650, above 0.01 µg/mL in [2], above 200 µM in assay [3] and above 0.01 µg/mL in [4]. Moreover, in [1], the inhibition came out at 19.2%.
Turning to `CCOC(=O)C(/C=N/OC)c1ccc(F)cc1` (stereo unspecified), the IC50 (with NCI-H1650; in assay [2]; in [4]) was above 0.01 µg/mL in each case. For the same compound, in assay [1], the inhibition entry is “inactive”.
As for `CCOC(=O)C(C=O)c1ccc(C(F)(F)F)cc1` (stereo unspecified), the half-maximal inhibitory concentration (IC50) (in the assay on NCI-H1650; in assay [2]; in assay [4]) was above 0.01 µg/mL throughout. The inhibition entry in assay [1] was “inactive”.
For `CCOC(=O)C(COC(=O)c1ccccc1OC(C)=O)c1ccc(F)cc1` (stereo unspecified), the IC50 was above 0.01 µg/mL with NCI-H1650, above 0.01 µg/mL in [2], above 200 µM in assay [3] and above 0.01 µg/mL in assay [4]. In assay [1], the inhibition was determined as 15.8%.
In the case of `COC(=O)C(/C=N/NC(N)=S)c1ccc(OC)cc1` (stereo unspecified), the IC50 in the assay with NCI-H1650 is 0.0025 µg/mL (≈ 0.00889 µM); in assay [2] it was above 0.01 µg/mL; in assay [3], above 200 µM; in assay [4] it was 0.0088 µg/mL (≈ 0.0313 µM). For the same compound, in assay [1], the inhibition was determined as 14.4%.
For the compound `CCOC(=O)C(/C=N/OC)c1ccc(C(F)(F)F)cc1` (stereo unspecified), the IC50 (with NCI-H1650; in [2]; in [4]) was above 0.01 µg/mL in each case. For the same compound, in assay [1], the inhibition entry was “inactive”.
Regarding `COC(=O)C(COC(=O)c1ccccc1)c1ccccc1` (stereo unspecified), the IC50 is above 0.01 µg/mL with NCI-H1650, above 0.01 µg/mL in [2], above 200 µM in assay [3] and above 0.01 µg/mL in assay [4]. The same compound returned an inhibition in assay [1] of 12.9%.
Consider `COC(=O)C(CO)c1ccc(C)cc1` (stereo unspecified), for which the half-inhibitory concentration (IC50) is above 0.01 µg/mL in the assay on NCI-H1650, above 0.01 µg/mL in assay [2], above 200 µM in assay [3] and above 0.01 µg/mL in [4]. Moreover, the inhibition in [1] was 14.6%. Besides, the Activity with Rattus norvegicus [5] stood at 21.76 mmol/L; in the assay on Rattus norvegicus [7], 21.4 mmol/L; with Rattus norvegicus [8] it was 21.66 mmol/L. The inhibition in vivo at 360 mg/kg with Rattus norvegicus [6] came out at 7.86%.
As to `OC[C@H]1NC[C@H](O)[C@@H](O)[C@@H]1O` [DUVOGLUSTAT], the inhibition in [1] came out at 52.5%. For the same compound, in assay [3], the IC50 came out at 109 µM.
In the case of `CN(C)C(=N)NC(=N)N` [METFORMIN], the inhibition in vivo at 100 mg/kg in the assay with Rattus norvegicus [9], in the assay with Rattus norvegicus [10], in the assay with Rattus norvegicus [11] and in the assay on Rattus norvegicus [12] was 7.86% each time.
As to `COC(=O)C(/C=N/NC(N)=S)c1ccc(C)cc1` (stereo unspecified), the IC50 is 0.00534 µg/mL (≈ 0.0201 µM) in the assay on NCI-H1650, 0.00522 µg/mL (≈ 0.0197 µM) in assay [2], 190 µM in assay [3] and above 0.01 µg/mL in assay [4]. The inhibition in assay [1] was found to be 20.8%.
For `CCC1=C(C)CN(C(=O)NCCc2ccc(S(=O)(=O)NC(=O)N[C@H]3CC[C@H](C)CC3)cc2)C1=O` [GLIMEPIRIDE], the inhibition in vivo at 20 mg/kg in the assay on Rattus norvegicus [13], in the assay with Rattus norvegicus [14], in the assay on Rattus norvegicus [15] and with Rattus norvegicus [16] was 7.86% each time.
Turning to `CCOC(=O)C(COC(=O)c1ccccc1)c1ccc(C(F)(F)F)cc1` (stereo unspecified), the IC50 in the assay with NCI-H1650 is above 0.01 µg/mL; in assay [2] it was above 0.01 µg/mL; in assay [3], above 200 µM; in assay [4], above 0.01 µg/mL. Also, in assay [1], the inhibition was 16.8%.
With `COC(=O)C(C=O)c1ccc(C)cc1` (stereo unspecified), the IC50 was above 0.01 µg/mL with NCI-H1650, above 0.01 µg/mL in assay [2], 185 µM in assay [3] and above 0.01 µg/mL in assay [4]. Moreover, the inhibition in assay [1] is 29.3%.

The term IC50 denotes the midpoint of a concentration-inhibition curve. In general, inhibition refers to the change of the read-out against control, counted positive when it falls. The term inhibition in vivo denotes how much of the control response was suppressed.
